Experimental data published in article PMC9519446, “Discovery of an Orally Active Benzoxaborole Prodrug Effective in the Treatment of Chagas Disease in Non-human Primates” (Nature microbiology, 2022).
Several values for one entry are separate records, joined by “and”; a condition that tells them apart may be missing. Identical values can stand only once.

Tests used:
[1] = NHP health screening: serum chemistry; type: in vivo, rhesus macaques (Macaca mulatta)
Procedure: Under light-anesthesia/sedation, peripheral blood samples were collected from each animal prior to treatment and at 7 time points following. Blood analysis (CBC and serum chemistry assays) and physical exams to evaluate the health of the study animals were performed on each animal prior to the beginning of the study and also at three time points during the treatment protocol (see Supplementary data).

[2] = Plasma protein binding (cyno); type: in vitro ADME
[3] = Mid-dosing bleed, treated animals, individual values
[4] = Post-dosing bleed, treated animals, individual values
[5] = Post-dosing bleed, Mean of treated F animals
[6] = Post-dosing bleed, individual treated animals
[7] = drug-treatment phase, returned to pre-study values by the final blood draw

For `Cc1c(C(=O)N[C@H](C(=O)OCC2CCOCC2)C(C)C)ccc2c1B(O)OC2` [AN15368], the Gluc [1, 3] was 69 Mg/Dl and 72 Mg/Dl and 58 Mg/Dl and 65 Mg/Dl and 66 Mg/Dl and 56 Mg/Dl and 73 Mg/Dl and 55 Mg/Dl and 63 Mg/Dl and 70 Mg/Dl and 48 Mg/Dl and 54 Mg/Dl and 79 Mg/Dl and 68 Mg/Dl and 53 Mg/Dl, the K [1, 3] was 3.9 Meq/L and 3.6 Meq/L and 3.3 Meq/L and 3.4 Meq/L and 3.5 Meq/L and 4.3 Meq/L and 3.8 Meq/L and 3.7 Meq/L and the Ldh [1, 3] was 473 Iu/L and 139 Iu/L and 164 Iu/L and 148 Iu/L and 134 Iu/L and 214 Iu/L and 259 Iu/L and 376 Iu/L and 250 Iu/L and 266 Iu/L and 183 Iu/L and 238 Iu/L and 449 Iu/L and 154 Iu/L and 213 Iu/L and 475 Iu/L and 156 Iu/L and 198 Iu/L and 375 Iu/L. The Na [1, 3] was 148 Meq/L and 150 Meq/L and 147 Meq/L and 144 Meq/L and 149 Meq/L and 146 Meq/L and 152 Meq/L, the Osmo [1, 3] was 284 Mosm/Kg and 289 Mosm/Kg and 281 Mosm/Kg and 283 Mosm/Kg and 288 Mosm/Kg and 276 Mosm/Kg and 286 Mosm/Kg and 280 Mosm/Kg and 287 Mosm/Kg and 293 Mosm/Kg and 285 Mosm/Kg and 282 Mosm/Kg and the Phos [1, 3] was 3.3 Mg/Dl and 3.8 Mg/Dl and 2 Mg/Dl and 2.4 Mg/Dl and 1 Mg/Dl and 2.2 Mg/Dl and 3.9 Mg/Dl and 2.5 Mg/Dl and 3.6 Mg/Dl and 3.1 Mg/Dl and 1.8 Mg/Dl and 4.8 Mg/Dl and 3.2 Mg/Dl. The Tbil [1, 3] was 0.18 Mg/Dl and 0.17 Mg/Dl and 0.14 Mg/Dl and 0.2 Mg/Dl and 0.16 Mg/Dl and 0.19 Mg/Dl and 0.15 Mg/Dl and 0.13 Mg/Dl, the Tco2 [1, 3] was 26 Meq/L and 28 Meq/L and 27 Meq/L and 25 Meq/L and 30 Meq/L and 24 Meq/L and the Tibc [1, 3] was 376 µg/dL and 358 µg/dL and 410 µg/dL and 408 µg/dL and 348 µg/dL and 343 µg/dL and 359 µg/dL and 373 µg/dL and 383 µg/dL and 429 µg/dL and 377 µg/dL and 326 µg/dL and 340 µg/dL and 412 µg/dL and 337 µg/dL and 324 µg/dL and 325 µg/dL. For the same compound, the Tp [1, 3] was 7.2 G/Dl and 6.7 G/Dl and 7.3 G/Dl and 7.5 G/Dl and 6.4 G/Dl and 7 G/Dl and 6.9 G/Dl and 6.5 G/Dl and 6.8 G/Dl and 6.6 G/Dl, the Trig [1, 3] was 99 Mg/Dl and 148 Mg/Dl and 81 Mg/Dl and 85 Mg/Dl and 108 Mg/Dl and 72 Mg/Dl and 32 Mg/Dl and 141 Mg/Dl and 65 Mg/Dl and 82 Mg/Dl and 79 Mg/Dl and 102 Mg/Dl and 29 Mg/Dl and 76 Mg/Dl and 70 Mg/Dl and 62 Mg/Dl and 66 Mg/Dl and 95 Mg/Dl and the Agap [1, 4] was 16 Meq/L and 14 Meq/L. For the same compound, the Alb [1, 4] was 3.9 G/Dl and 3.7 G/Dl, the Alp [1, 4] was 111 Iu/L and 100 Iu/L and 77 Iu/L and the Alt [1, 4] was 52 Iu/L and 63 Iu/L and 59 Iu/L. The Ast [1, 4] was 26 Iu/L and 34 Iu/L and 32 Iu/L, the Bun [1, 4] was 17 Mg/Dl and 14 Mg/Dl and the Ca [1, 4] was 9.5 Mg/Dl and 8.9 Mg/Dl. For the same compound, the Chol [1, 4] was 187 mg/dL and 193 mg/dL and 141 mg/dL, the Ck [1, 4] was 260 Iu/L and 337 Iu/L and 328 Iu/L and the Cl [1, 4] was 107 Meq/L and 111 Meq/L. For the same compound, the Crea [1, 4] was 0.58 Mg/Dl and 0.78 Mg/Dl and 0.68 Mg/Dl, the Fe [1, 4] was 135 µg/dL and 99 µg/dL and 93 µg/dL and the Ggt [1, 4] was 41 Iu/L and 54 Iu/L and 38 Iu/L. For the same compound, the Glob [1, 4] was 3.3 G/Dl and 3.1 G/Dl and 2.9 G/Dl, the Gluc [1, 4] was 63 Mg/Dl and 84 Mg/Dl and 51 Mg/Dl and the K [1, 4] was 3.5 Meq/L and 3.4 Meq/L. For the same compound, the Ldh [1, 4] was 217 Iu/L and 509 Iu/L and 322 Iu/L, the Na [1, 4] was 147 Meq/L and 146 Meq/L and 148 Meq/L and the Osmo [1, 4] was 283 Mosm/Kg and 281 Mosm/Kg and 284 Mosm/Kg. The Phos [1, 4] was 4.6 Mg/Dl and 3.2 Mg/Dl and 2.1 Mg/Dl, the Tbil [1, 4] was 0.19 Mg/Dl and 0.14 Mg/Dl and 0.12 Mg/Dl and the Tco2 [1, 4] was 28 Meq/L and 26 Meq/L. The Tibc [1, 4] was 357 µg/dL and 333 µg/dL and 388 µg/dL, the Tp [1, 4] was 7.2 G/Dl and 6.8 G/Dl and 6.6 G/Dl and the Trig [1, 4] was 64 Mg/Dl and 152 Mg/Dl and 111 Mg/Dl. The Agap [1, 5] was 15.0556 Meq/L, the Alb [1, 5] was 3.833 G/Dl and the Alp [1, 5] was 103.5 Iu/L. For the same compound, the Alt [1, 5] was 52.5556 Iu/L, the Ast [1, 5] was 30.8889 Iu/L and the Bun [1, 5] was 14.9444 Mg/Dl. For the same compound, the Ca [1, 5] was 9.256 Mg/Dl, the Chol [1, 5] was 143.944 mg/dL and the Ck [1, 5] was 504.722 Iu/L. It also gave a Cl [1, 5] of 109.722 Meq/L, a Crea [1, 5] of 0.695 Mg/Dl and a Fe [1, 5] of 115.333 µg/dL. The Ggt [1, 5] was 47 Iu/L, the Glob [1, 5] was 3.178 G/Dl and the Gluc [1, 5] was 64.6667 Mg/Dl. The K [1, 5] was 3.617 Meq/L, the Ldh [1, 5] was 322.722 Iu/L and the Na [1, 5] was 147.667 Meq/L. For the same compound, the Osmo [1, 5] was 283.5 Mosm/Kg, the Phos [1, 5] was 3.244 Mg/Dl and the Tbil [1, 5] was 0.1383 Mg/Dl. For the same compound, the Tco2 [1, 5] was 26.6111 Meq/L, the Tibc [1, 5] was 363.444 µg/dL and the Tp [1, 5] was 7.006 G/Dl. For the same compound, the Trig [1, 5] was 77.7222 Mg/Dl, the Agap [1, 6] was 14 Meq/L and 13 Meq/L and 17 Meq/L and 15 Meq/L and 19 Meq/L and the Alb [1, 6] was 3.7 G/Dl and 3.8 G/Dl and 3.6 G/Dl and 3.3 G/Dl and 3.5 G/Dl and 4.1 G/Dl and 4.2 G/Dl and 4 G/Dl and 3.4 G/Dl and 3.9 G/Dl. The Alp [1, 6] was 195 Iu/L and 100 Iu/L and 87 Iu/L and 122 Iu/L and 132 Iu/L and 143 Iu/L and 66 Iu/L and 83 Iu/L and 80 Iu/L and 105 Iu/L and 138 Iu/L and 102 Iu/L and 69 Iu/L and 79 Iu/L, the Alt [1, 6] was 97 Iu/L and 39 Iu/L and 41 Iu/L and 87 Iu/L and 35 Iu/L and 91 Iu/L and 28 Iu/L and 31 Iu/L and 48 Iu/L and 71 Iu/L and 43 Iu/L and 46 Iu/L and 64 Iu/L and the Ast [1, 6] was 40 Iu/L and 30 Iu/L and 31 Iu/L and 28 Iu/L and 27 Iu/L and 20 Iu/L and 42 Iu/L and 18 Iu/L and 26 Iu/L and 32 Iu/L and 45 Iu/L and 35 Iu/L. The Bun [1, 6] was 12 Mg/Dl and 16 Mg/Dl and 17 Mg/Dl and 10 Mg/Dl and 18 Mg/Dl and 15 Mg/Dl and 13 Mg/Dl and 20 Mg/Dl and 11 Mg/Dl and 14 Mg/Dl, the Ca [1, 6] was 9.1 Mg/Dl and 8.8 Mg/Dl and 9 Mg/Dl and 9.3 Mg/Dl and 9.8 Mg/Dl and 9.2 Mg/Dl and 9.6 Mg/Dl and 9.4 Mg/Dl and 9.5 Mg/Dl and 8.7 Mg/Dl and the Chol [1, 6] was 121 mg/dL and 130 mg/dL and 133 mg/dL and 163 mg/dL and 147 mg/dL and 123 mg/dL and 150 mg/dL and 157 mg/dL and 141 mg/dL and 125 mg/dL and 129 mg/dL and 155 mg/dL and 160 mg/dL and 115 mg/dL and 127 mg/dL. The Ck [1, 6] was 628 Iu/L and 657 Iu/L and 306 Iu/L and 255 Iu/L and 667 Iu/L and 292 Iu/L and 656 Iu/L and 625 Iu/L and 240 Iu/L and 479 Iu/L and 309 Iu/L and 783 Iu/L and 341 Iu/L and 1583 Iu/L and 339 Iu/L and 291 Iu/L, the Cl [1, 6] was 109 Meq/L and 111 Meq/L and 108 Meq/L and 113 Meq/L and 110 Meq/L and 107 Meq/L and the Crea [1, 6] was 0.68 Mg/Dl and 0.84 Mg/Dl and 0.9 Mg/Dl and 0.6 Mg/Dl and 0.64 Mg/Dl and 0.7 Mg/Dl and 0.75 Mg/Dl and 0.83 Mg/Dl and 0.62 Mg/Dl and 0.65 Mg/Dl and 0.78 Mg/Dl and 0.66 Mg/Dl and 0.53 Mg/Dl. For the same compound, the Fe [1, 6] was 123 µg/dL and 100 µg/dL and 104 µg/dL and 102 µg/dL and 72 µg/dL and 129 µg/dL and 105 µg/dL and 154 µg/dL and 174 µg/dL and 67 µg/dL and 109 µg/dL and 144 µg/dL and 159 µg/dL and 136 µg/dL, the Ggt [1, 6] was 47 Iu/L and 54 Iu/L and 63 Iu/L and 53 Iu/L and 51 Iu/L and 30 Iu/L and 52 Iu/L and 29 Iu/L and 39 Iu/L and 31 Iu/L and 89 Iu/L and 35 Iu/L and 42 Iu/L and the Glob [1, 6] was 3.3 G/Dl and 2.9 G/Dl and 4 G/Dl and 3.5 G/Dl and 3 G/Dl and 3.2 G/Dl and 2.7 G/Dl and 2.8 G/Dl and 3.4 G/Dl. For the same compound, the Gluc [1, 6] was 67 Mg/Dl and 57 Mg/Dl and 69 Mg/Dl and 65 Mg/Dl and 74 Mg/Dl and 62 Mg/Dl and 70 Mg/Dl and 48 Mg/Dl and 50 Mg/Dl and 58 Mg/Dl and 66 Mg/Dl and 75 Mg/Dl and 86 Mg/Dl and 44 Mg/Dl and 51 Mg/Dl, the K [1, 6] was 3.6 Meq/L and 3.5 Meq/L and 3.7 Meq/L and 4.4 Meq/L and 3.4 Meq/L and 3.8 Meq/L and the Ldh [1, 6] was 356 Iu/L and 197 Iu/L and 294 Iu/L and 209 Iu/L and 260 Iu/L and 107 Iu/L and 225 Iu/L and 392 Iu/L and 204 Iu/L and 300 Iu/L and 485 Iu/L and 796 Iu/L and 178 Iu/L and 365 Iu/L and 393 Iu/L and 524 Iu/L. For the same compound, the Na [1, 6] was 147 Meq/L and 150 Meq/L and 148 Meq/L and 151 Meq/L and 146 Meq/L and 149 Meq/L and 145 Meq/L, the Osmo [1, 6] was 281 Mosm/Kg and 288 Mosm/Kg and 283 Mosm/Kg and 282 Mosm/Kg and 284 Mosm/Kg and 291 Mosm/Kg and 280 Mosm/Kg and 286 Mosm/Kg and 279 Mosm/Kg and 287 Mosm/Kg and the Phos [1, 6] was 2.4 Mg/Dl and 1.8 Mg/Dl and 1.9 Mg/Dl and 2.7 Mg/Dl and 3.6 Mg/Dl and 3.8 Mg/Dl and 4.7 Mg/Dl and 2.9 Mg/Dl and 3.7 Mg/Dl and 5.2 Mg/Dl and 2.1 Mg/Dl and 4.6 Mg/Dl and 4.3 Mg/Dl and 4 Mg/Dl. The Tbil [1, 6] was 0.15 Mg/Dl and 0.13 Mg/Dl and 0.1 Mg/Dl and 0.14 Mg/Dl and 0.17 Mg/Dl and 0.12 Mg/Dl and 0.11 Mg/Dl and 0.16 Mg/Dl, the Tco2 [1, 6] was 28 Meq/L and 30 Meq/L and 26 Meq/L and 25 Meq/L and 24 Meq/L and 29 Meq/L and 23 Meq/L and the Tibc [1, 6] was 379 µg/dL and 363 µg/dL and 332 µg/dL and 367 µg/dL and 386 µg/dL and 356 µg/dL and 359 µg/dL and 419 µg/dL and 437 µg/dL and 354 µg/dL and 325 µg/dL and 353 µg/dL and 316 µg/dL and 309 µg/dL. The Tp [1, 6] was 7 G/Dl and 6.7 G/Dl and 7.6 G/Dl and 6.8 G/Dl and 7.5 G/Dl and 7.1 G/Dl and 6.9 G/Dl and 7.2 G/Dl, the Trig [1, 6] was 78 Mg/Dl and 58 Mg/Dl and 56 Mg/Dl and 74 Mg/Dl and 63 Mg/Dl and 59 Mg/Dl and 42 Mg/Dl and 61 Mg/Dl and 158 Mg/Dl and 51 Mg/Dl and 44 Mg/Dl and 113 Mg/Dl and 93 Mg/Dl and 100 Mg/Dl and the “alanine aminotransferase (ALT), mean value” [1, 7] was “mildly elevated”. The “alkaline phosphatase (ALP), mean value” [1, 7] was “mildly elevated” and the “Funbound (cyno)” value [2] was 21%.
